Test results published in article PMC5306082, “Physiologically based kinetic modeling of the bioactivation of myristicin” (Archives of Toxicology, 2016).

Test: Sulfonation of 1′-hydroxymyristicin, male rat liver S9
Assay type: in vitro ADME
Conditions: S9 protein yield 143 mg/g liver
Protocol: The formation of 1′-sulfoxymyristicin was determined using incubations containing male rat liver Sprague–Dawley or pooled gender human liver S9 proteins, PAPS as a cofactor, and GSH, which acts as a scavenger of the reactive carbocation formed due to the unstable nature of the 1′-sulfoxy metabolite in an aqueous environment (van den Berg et al. [2012]; Martati et al. [2011]; Al-Subeihi et al. [2011]). Incubation mixtures containing (final concentrations) 10 mM of GSH, 0.2 mM of PAPS, and 3 mg/ml of S9 proteins in 0.1 M potassium phosphate (pH 8.2) were pre-incubated for 1 min at 37 °C. After the pre-incubation, 1′-hydroxymyristicin dissolved in DMSO was added in final concentrations ranging between 10 and 6000 μM while keeping the final content of DMSO at 1 % (v/v). The reaction was terminated after 360 min of incubation by adding 25 μl (0.25 times the incubation volume) of ice-cold ACN. The formation of the GSH conjugate of 1′-sulfoxymyristicin was linear with time and S9 protein concentrations under the experimental conditions used. Blank incubations were performed in the absence of PAPS. Incubations were performed in triplicate. All samples were centrifuged for 5 min at 16,000×g, and the supernatant was stored at −20 °C until ultra-performance liquid chromatography (UPLC) analysis.
Quantification of 1′-sulfoxymyristicin was done using UPLC analysis as described for the estimation of 1′-sulfoxysafrole (Martati et al. [2011]). […] The gradient for analysis of the metabolite consisted of a mixture of ACN and ultrapure water containing 0.1 % (v/v) TFA. The flow rate was 0.6 ml/min, starting at 0 % ACN and increasing the percentage of ACN to 20 % over 0.2 min, followed by an increase to 30 % ACN over 4.3 min, then increasing to 100 % over 0.3 min, and keeping it at 100 % for 0.2 min, and finally decreasing to 0 % over 0.2 min and keeping it at 0 % for 0.8 min. Separation and purification of the GSH adduct of 1′-sulfoxymyristicin was performed by collecting the peak of the metabolite from the UPLC column. […]

## C=CC(O)c1cc(OC)c2c(c1)OCO2 (stereo not shown) [1′-Hydroxymyristicin, 1′-hydroxymyristicin]
  k Scaled: 0.15 ml/hr/g tissue
